Laboratory results published in patent US4599336A, “Derivatives of (E)-3-(4-oxo-4H-quinazolin-3-yl)-2-propenamide” (Hoffmann-La Roche Inc., priority 1983, dated 1986).

How the values were obtained:
[1] = target: T1, PAF receptor (dog platelets) (Canis lupus familiaris, UniProt A0A8I3NSH0); assay: PAF Radioreceptor Binding Assay; conditions: 3H-PAF
T1 construct: followed by 2×10^7 dog platelets; from tissue; host or cells: dog platelets, washed, intact
T1 sequence (A0A8I3NSH0 1-343): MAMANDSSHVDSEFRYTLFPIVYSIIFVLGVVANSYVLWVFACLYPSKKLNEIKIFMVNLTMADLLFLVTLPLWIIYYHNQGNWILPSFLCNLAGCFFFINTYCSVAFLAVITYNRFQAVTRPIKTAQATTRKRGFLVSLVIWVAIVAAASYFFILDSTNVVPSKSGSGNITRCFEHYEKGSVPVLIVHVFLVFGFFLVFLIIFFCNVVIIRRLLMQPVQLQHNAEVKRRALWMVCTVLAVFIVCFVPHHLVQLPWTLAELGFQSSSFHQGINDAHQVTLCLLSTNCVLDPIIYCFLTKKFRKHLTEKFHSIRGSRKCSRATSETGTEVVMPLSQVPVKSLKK
Protocol: Platelet rich plasma is prepared by centrifugation of citrate-treated dog blood. Acidification to pH 6.5 with 0.15M citric acid and centrifugation for 10 minutes at 1000 g yields a platelet pellet which is then washed by resuspension in EDTA-Phosphate Buffered Saline (PBS) and recentrifuged. The washed platelet preparation is adjusted to 2×10^7 platelets/50 μl in 0.1% BSA-PBS.
To a […] microfuge tube containing 50 μl silicone oil (specific gravity 1.023) is added buffer, PAF standard or analog, or an extract to bring the aqueous volume to 150 μl. 50 μl of ^3 H-PAF (10,000 cpm, 45 Ci/mM) is added followed by 2×10^7 dog platelets. After mixing, incubating for 10 minutes at room temperature, and centrifuging for 1 minute in a Beckman Microfuge B (8000 g), the pellet is removed by clipping off the tip of the tube, solubilizing the platelets with 200 μl of 50% methanol, and counting in 10 ml of Aquasol. […] Results obtained with representative compounds of the present invention in this assay are summarized hereinafter in Table I.

[2] = test system: SRS-A-induced constriction of the guinea pig ileum; assay: Guinea Pig Ileum, In Vitro (inhibition of SRS-A-induced constriction); type: cell-based; conditions: Cavia porcellus; SRS-A-induced constriction; in vitro; read-out: Guinea Pig Ileum, IC50
Protocol: The guinea pig ileum bioassay system has been described by Orange and Austen, Adv. Immunol. […] A 1.5 cm segment is removed from animals weighing 300-400 g. and suspended in an organ bath containing 10 ml. of Tyrodes solution with 10^-6 M atropine sulfate and 10^-6 M pyrilamine maleate. […] The SRS-A utilized in this screen is obtained by challenging chopped lung fragments from actively sensitized guinea pigs with egg albumin, in vitro. A dose-response curve to SRS-A challenge is established for the ileum. […] The drug concentration which inhibits, by 50%, the SRS-A-induced constriction of the guinea pig ileum is determined.

[3] = target: T2, TXA2 synthase (Homo sapiens, UniProt P24557); assay: Thromboxane Synthase Inhibition, In Vitro; type: biochemical; conditions: human platelet microsomes; for inhibition at 0.1 µM: at 10^-7 M
T2 construct: using microsomal fractions from human platelets as enzyme source; from tissue; host or cells: human platelets, microsomal fraction
T2 sequence (P24557 1-533): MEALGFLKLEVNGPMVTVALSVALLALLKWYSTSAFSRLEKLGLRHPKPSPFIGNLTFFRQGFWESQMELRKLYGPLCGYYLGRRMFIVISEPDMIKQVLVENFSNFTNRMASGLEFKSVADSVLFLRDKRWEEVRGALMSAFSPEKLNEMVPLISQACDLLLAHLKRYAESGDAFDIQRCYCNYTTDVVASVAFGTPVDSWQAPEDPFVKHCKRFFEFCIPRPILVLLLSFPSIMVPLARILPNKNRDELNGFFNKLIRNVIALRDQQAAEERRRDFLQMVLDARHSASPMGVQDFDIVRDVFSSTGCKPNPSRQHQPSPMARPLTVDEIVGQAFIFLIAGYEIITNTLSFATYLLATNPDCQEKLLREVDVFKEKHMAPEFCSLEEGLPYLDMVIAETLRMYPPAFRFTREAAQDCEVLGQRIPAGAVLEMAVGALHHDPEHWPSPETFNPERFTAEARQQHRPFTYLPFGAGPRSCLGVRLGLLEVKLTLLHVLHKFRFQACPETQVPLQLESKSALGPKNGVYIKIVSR
Protocol: TXA2 synthase activity is measured by following the conversion of ^14 C-prostaglandin endoperoxide (PGH2) to ^14 C-thromboxane A2 (TXA2) using microsomal fractions from human platelets as enzyme source. In the aqueous incubation medium, the TXA2 decomposes rapidly into TXB2. The amount of TXA2 synthase is adjusted so that under the conditions of the assay approximately 80-90% of the substrate, PGH2, is converted to product in control tubes. To prepare ^14 C--PGH2, ^14 C--AA (50-60 mCi/mmole; Rose Chem.) is incubated with sheep seminal vesicular gland microsomes for 1.5 minutes at 37° C. and then the ^14 C--PGH2 is extracted with diethylether, purified on columns of Sephadex LH-20 or silicic acid, and stored in acetone at -70° C. Incubations are done as follows. Sufficient ^14 C--PGH2 to yield a final substrate concentration of 10 μM (30,000 cpm) is added to the incubation tubes and then the acetone is removed under nitrogen. The tubes are placed in an ice bath and then 215 μl of ice cold phosphate buffered saline, 10 μl of ethanol (control) or of test drug in ethanol, and 25 μl of the microsomal suspension are added with mixing in that order as rapidly as possible. The tubes are incubated at 22° C. for 2 minutes, the reaction is stopped and then the radioactive products and the uncoverted PGH2 are extracted and analyzed by thin layer chromatography. […] The amount of ^14 C--PGH2 converted to products was used as a measure of TXA2 synthase activity. Inhibitors were tested initially at a final concentration of 100 μM. Results obtained with representative compounds of the present invention in this assay are summarized hereafter in Table I.

IC50 [1] [nM]	IC50 [2] [nM]	IC50 ([3]; read-out: TXA2 Synthase Inhibition (concentration bound printed in the % column)) [nM]	inhibition at 0.1 µM [3] [%]	SMILES
> 1000	> 10000	> 10000		CC(C)c1ccc2ncn(/C=C/C(=O)NCCCCc3ccccn3)c(=O)c2c1 [drawing 17]
650	1000		48	CC(C)c1ccc2ncn(/C=C/C(=O)NCCCCc3cccnc3)c(=O)c2c1 [drawing 12]
> 1000	5000		72	CC(C)c1ccc2ncn(/C=C/C(=O)NCCCCn3ccnc3)c(=O)c2c1 [drawing 15]
